Data: patent US9034929B2, “Aminoalcohol and biocide compositions for aqueous based systems” (ANGUS Chemical Company, priority 2007, dated 2015)

Tests used:
[1] = tested on: bacteria of a mixed bacterial/fungal inoculum isolated from spoiled metalworking fluids; assay: ASTM Practice E 2275-03 microbial challenge test of diluted metalworking fluids, bacterial counts; type: cell-based; conditions: for bacterial growth / resistance to bacterial attack: 8% amino alcohol fluid with benzisothiazolinone (BIT), 0.012% active in diluted fluid, FIG. 5
Description: (§1) This compound was formulated at 8% by weight into a generic semi-synthetic metalworking fluid concentrate as described in Table 1. Identical formulations were prepared except substituting conventional amino alcohol compounds for 3A4O. The conventional amino alcohols were 2-amino-2-methyl-1-propanol (AMP) and n-butylethanolamine (BEA). An identical set of fluid concentrates was prepared including 1.5% of a 77% aqueous solution of 1,3,5-tris(2-hydroxyethyl)-s-triazine preservative, allowing us to evaluate fluids with and without preservative. The fluid concentrates were diluted at a rate of 20 parts Chicago tap water to 1 part fluid concentrate (by weight); the active amino alcohol concentration at dilution was therefore approximately 0.4% and the active preservative dosage (in the preserved set) was approximately 0.058%. These fluids were subjected to microbial challenge testing by ASTM Practice E 2275-03. In this method fluids are inoculated initially and then weekly with a mixed bacterial/fungal inoculum isolated from spoiled metalworking fluids. The bacterial and fungal counts are measured weekly using a serial dilution plate count method, and reported as colony forming units per milliliter (CFU/mL). The lower the CFU/mL the better the microbial control, and the longer the predicted service life of the fluid. The microbial results are described in FIGS. 1 & 2 (unpreserved) and FIGS. 3 & 4 (preserved with triazine).
(§2) This material was formulated into the same metalworking fluid concentrate described in Example A, at an 8% concentration. Identical fluids were prepared using 8% 2-amino-2-methyl-1-propanol (AMP) and 8% dicyclohexylamine (DCHA). The preservative benzisothiazolinone (BIOBAN BIT 20 DPG from Dow Biocides) was added to each fluid concentrate at 1.2%, giving an active concentration of 0.24% in the fluid concentrates and 0.012% in the use diluted fluids. The diluted fluids were subjected to the same microbial testing protocol described in Example A, and the results are described in FIGS. 5 & 6.
(§3) In order to understand the influence of use level of the amino alcohols of the invention, we prepared similar semi-synthetic fluid concentrates as described previously but using 4% amino alcohol to give 2000 ppm at use dilution; the difference in the formulation was made up with water. The fluid concentrates were preserved with the same level of triazine-77% described previously. These fluids were diluted and subjected to the same bacterial/fungal challenge tests described in Examples A and B; the data are found in FIGS. 8 & 9.
FIGS. 10-17 provide additional comparisons between 3-amino-4-octanol (3A4O), an aminoalcohol of the invention, and the non-invention aminoalcohol compounds 2-amino-2-methyl-1-propanol (AMP) and n-butylethanolamine (BEA), in conjunction with various biocides. In particular, FIGS. 10 and 11 bacterial and fungal efficacy comparisons of the aminoalcohols with BIOBAN P-1487 (a combination of 4-(2-nitrobutyl)-morpholine with 4,4′-(2-ethyl-2-nitrotrimethylene)dimorpholine). This biocide was added to give 750 ppm in the diluted fluid. The amine dosage was adjusted to give 4000 ppm at dilution. FIGS. 12 and 13 show bacterial and fungal efficacies of the aminoalcohols in the presence of a triazine/IPBC biocide blend. Triazine-78% was added at 750 ppm based on diluted fluid and iodopropynylbutylcarbamate (IPBC) added at 300 ppm active at dilution. The amine dosage was adjusted to give 3000 ppm at dilution. FIGS. 14 and 15 show bacterial and fungal efficacy of the compounds with Benzisothiazolinone (BIT). BIT was added at 120 ppm active based on diluted fluid and iodopropynylbutylcarbamate (IPBC) added at 300 ppm active at dilution. The amine dosage was adjusted to give 3000 ppm at dilution. FIGS. 16 and 17 show bacterial and fungal efficacy of the aminoalcohols with a chloromethylisothiazolinone/methylisothiazolinone (CMIT/MIT) blend. […]

[2] = tested on: fungi of a mixed bacterial/fungal inoculum isolated from spoiled metalworking fluids; conditions: at the dosage used (about 0.058% active at dilution); cited from earlier work
[3] = tested on: fungi of a mixed bacterial/fungal inoculum isolated from spoiled metalworking fluids; assay: ASTM Practice E 2275-03 microbial challenge test of diluted metalworking fluids, fungal counts; type: cell-based
Description: as §1, §2
as §3, with “9. […]” for “9.”

pseudomonas aeroginosa = conditions: stated as known; cited from earlier work
[4] = tested on: mycobacterium immunogenum (ATTCC strain 700505); assay: ASTM microbial challenge test with mycobacterial inoculum; type: cell-based; conditions: 8% amino alcohol fluid with 1.5% triazine preservative (77% active) in concentrate; FIG. 7

C1CCC(NC2CCCCC2)CC1 [DCHA, dicyclohexylamine, reference compound]
bacterial growth / resistance to bacterial attack [1]: the opposite is true

OCCN1CN(CCO)CN(CCO)C1 [triazine preservative, 1,3,5-tris(2-hydroxyethyl)-s-triazine]
efficacy of the preservative alone against fungi [2]: not effective against fungi

CCCCC(O)C(C)N (stereo not shown) [2A3H, 2-amino-3-heptanol]
fungal growth / resistance to fungal attack ([3]; 8% amino alcohol fluid with benzisothiazolinone (BIT), 0.012% active in diluted fluid, FIG. 6): resists attack better than that with AMP, and is comparable in resistance to the fluid with DCHA
fungal growth (plate count, CFU/mL) ([3]; unpreserved semi-synthetic MWF, 8% amino alcohol in concentrate (about 0.4% at dilution), weekly inoculation, FIG. 2): does not significantly inhibit bacterial or fungal growth
bacterial growth / resistance to bacterial attack [1]: more resistant to bacterial attack than the others
bacterial growth (plate count, CFU/mL) ([1]; unpreserved semi-synthetic MWF, 8% amino alcohol in concentrate (about 0.4% at dilution), weekly inoculation, FIG. 1): does not significantly inhibit bacterial or fungal growth

CCCCC(O)C(N)CC (stereo not shown) [3A4O, 3-amino-4-octanol]
fungal growth (plate count, CFU/mL) ([3]; 8% amino alcohol fluid preserved with triazine (about 0.058% active at dilution), FIG. 4): unexpected reduction in growth rate over the full course of the test
enhancement of biocide efficacy against fungi ([3]; amine 3000-4000 ppm at dilution with BIOBAN P-1487, triazine/IPBC, BIT or CMIT/MIT, FIGS. 11, 13, 15, 17): greater enhancement against fungi
bacterial growth (plate count, CFU/mL) ([1]; 8% amino alcohol fluid preserved with triazine (about 0.058% active at dilution), FIG. 3): unexpected reduction in growth rate over the full course of the test
enhancement of biocide efficacy against bacteria ([1]; amine 3000-4000 ppm at dilution with BIOBAN P-1487, triazine/IPBC, BIT or CMIT/MIT, FIGS. 10, 12, 14, 16): increased enhancement of biocide efficacy

O=c1[nH]sc2ccccc12 [BIT, benzisothiazolinone]
efficacy against pseudomonas aeroginosa (pseudomonas aeroginosa): not to be effective

CC(C)(N)CO [AMP, 2-amino-2-methyl-1-propanol, reference compound]
mycobacterial growth / resistance [4]: virtually no inhibition of activity
bacterial growth / resistance to bacterial attack [1]: relatively poor performance against bacteria
